Assay results as given in patent US8101653B2, “Therapeutic compositions” (BTG International Limited, priority 1997, dated 2012).

Columns and labels:
[1] = liquid diet supplemented with 47% of its caloric content; cited from earlier work
[2] = system: liver cytosolic [NAD]/[NADH]; settings: after feeding/administration; 1,3 butandiol decrease from 1500; cited from earlier work
whole brain GABA levels = test: Effect of increased blood D-β-hydroxybutyrate on whole brain GABA levels; type: in vivo, rat; settings: 120 minutes after administration as in Example 3; t=0 level 191
Procedure: To assess the effect of D-β-hydroxybutyrate on whole brain GABA levels, and thus provide an indication of antiepileptic effect of ketone body or precursor treatment aimed at increasing blood ketone body levels, whole rat brain was frozen at set times after administration of D-β-hydroxybutyrate as described in Example 3, GBA was assayed using standard HPLC technique and related to protein content using standard protein assay.

[3] = cited from earlier work
[4] = system: primary hippocampal cultures; test: Effect of D-β-hydroxybutyrate on β-amyloid toxicity to hippocampal cells in vitro (microisland cultures); type: cell-based, Wistar; settings: for neuronal cell number per microisland: increase from a mean of 30
Procedure: The serum free medium used from 0 to day 4 contained Neurobasal medium with B27 supplement diluted 50 fold (Life Technology, Gaithersburg, Md.) to which was added: 0.5 mM L-glutamine, 25 μM Na L-glutamate, 100 U/ml penicillin and 100 μg/ml streptomycin. After day 4, DMEM/F12 medium containing 5 μM insulin, 30 nM 1-thyroxine, 20 nM progesterone, 30 nM Na selenite 100 U/ml penicillin and 100 μg/ml streptomycin were used.
The primary hippocampal cultures were removed from Wistar embryos on day 18 and dispersed by gentle aggitation in a pipette. The suspension was centrifuge at 1,500×g for 10 min and the supernatant discarded. New media was make 0.4-0.5×10^6 cells/ml. Ten μl of this suspension was pipetted into the center of poly D-lysine coated culture wells and the plates incubated at 38° C. for 4 hrs and then 400 μl of fresh Neurobasal media was added. After 2 days of incubation, half of the media was exchanged for fresh media and the incubation continued for 2 more days. After day 4, the medium was changed with DMEM/F12 medium containing 5 μM insulin, 30 nM 1-thyroxine, 20 nM progestrone, 30 nM Na selenite 100 U/ml penicillin and 100 μg/ml streptomycin. […] These media were exchanged 2 days later (day 8) and the cells were fixed on day 10 and stained with anti MAP2 (Boehringer Manheim, Indianapolis, Id.) to visual neurons and vimentin and GFAP (Boehringer) to visualize glial cells.

[5] = room temperature, unesterified state; cited from earlier work
[6] = system: cerebral circulation and regional vasomotor reflexes; settings: in vivo; cited from earlier work
[7] = cited from earlier work; remark: listed apart in the source
[8] = Oral administration of triolide in yoghurt to rats, plasma D-β-hydroxybutyrate and tolerability; type: in vivo, Wistar rats; settings: over at least 3 hours
Procedure: The ability of orally administered triolide to raise blood ketone levels was investigated as follows. The day before the experiment commenced, 12 Wistar rats weighing 316±10 g were placed in separate cages. They had no access to food for 15 hours prior to presentation with triolide containing compositions, but water was provided ad libitum.
On the morning of the experiment 0.64 g of triolide was mixed with 5 g Co-op brand Black Cherry yoghurt in separate feeding bowls for […] of the rats. The memaining 3 rats were given 5 g of the yoghurt without the triolide as controls. The yoghurt containing bowls were placed in the cages and the rats timed while they ate. Two of the three control rats ate all the yoghurt and four of the six triolide yoghurt rats ate approximately half the provided amount. The remaining […] rats slept.
Control rats (n=2) were killed at 60 and 180 minutes after ingestion of yoghurt while triolide fed rats were killed at 80, 140, 150 and 155 minutes. Blood samples were taken for assay of D-β-hydroxybutyrate. […] Blood levels of (R)-3-hydroxyburyrate were measured using a […] assay of Anal. Biochem (1983) 131, p 478-482, 1.0 ml of a solution made up from 2-amino-2-methyl-1-propanol (100 mM pH 9.9, 0.094 g/10 ml), NAD^− (30 mM. 0.199 g/10 ml) and EDTA (4 mM, 0.015 g/10 ml) was added to each of a number of cuvettes and 4 μl sample or D-β-hydroxybutyrate control.

[9] = Rats fed triolide in 'Hob-Nob' biscuit, tolerability over two weeks; type: in vivo; settings: two rats fed approximately 1.5 g triolide each in biscuit, after two weeks
septal cells = settings: 1 μm Aβ142 for 24 hours; cited from earlier work
[10] = presence of D-β-hydroxybutyrate, whether β142 was present or not
[11] = intravenous infusion, normal human subjects and patients

CC(O)CCO (racemic) [racemic 1,3 butandiol, 1,3 butandiol]
blood D-β hydroxybutyrate concentration [1]: 0.98 mM
blood acetoacetate concentration [1]: 0.33 mM
rise of blood ketone concentration [1]: about 10 fold
liver cytosolic [NAD]/[NADH] [2]: 1000

C[C@@H](O)CC(=O)O [D-β-hydroxybutyrate, (R)-3-hydroxybutyric acid]
whole brain GABA levels (whole brain GABA levels): 466 pmoles/μg protein
pKa [3]: 4.4
neuronal cell number per microisland ([4]; D-β-hydroxybutyrate added to cultures containing amyloid β142): 70 cells per microisland
neuronal cell number per microisland ([4]; Na D-β-hydroxybutyrate 8 mM, no amyloid): 70 cells per microisland
length of axons [4, 10]: increased
number of dendritic outgrowths [4, 10]: increased

CC(=O)CC(=O)O [acetoacetate]
half time of spontaneous decarboxylation to acetone [5]: about 30 days

CCO [ethanol]
liver cytosolic [NAD]/[NADH] [2]: around 200

CC(O)CC(=O)[O-].[Na+] (centres unmarked) [sodium hydroxybutyrate]
increase of cerebral circulation and regional vasomotor reflexes [6]: up to 40%

C[C@@H](O)CC(=O)[O-].[Na+] [sodium salts of D-β-hydroxybutyrate]
toxicity ([7]; human, in vivo, iv): non-toxic
effect on glucose, free fatty acids and glycerol concentration [7, 11]: capable of decreasing
effect on leucine oxidation [7, 11]: ineffective

C[C@@H]1CC(=O)O[C@H](C)CC(=O)O[C@H](C)CC(=O)O1 [triolide, (R,R,R)-4,8,12-trimethyl-1,5,9-trioxadodeca-2,6,10-trione]
ill effects from ingestion [8]: no ill effects
ill effects [9]: no ill effects

amyloid β142: amyloid β peptide (Sigma), toxic to hippocampal neurons
activity of choline acetyl transferase (septal cells): no decrease
decrease in acetyl choline production (septal cells): over five fold
